Data published in patent US20060135568A1, “Methods of treating microbial infections in humans and animals” (priority 2002, published 2006).
“Also recorded” adds a separate entry of the source.

Test system: b-subunit of ATP synthase (atpF, Rv1306) and hsp (Rv0251c)
Assay type: cell-based, M. bovis BCG (Pasteur strain, ATCC 35734)

Row | SMILES | overexpression of hsp and b-subunit of ATP synthase on 2-D gels | time to overexpression of both proteins post exposure
1 | CCCCCCCCS(=O)(=O)CC(N)=O [OSA, n-octanesulfonylacetamide] | significant overexpression | ≤ 3.5 h
2 | NNC(=O)c1ccncc1 [INH, isoniazid] | Neither; also recorded: failed to result in overexpression | 
3 | C/C=C/C/C=C/CCC(=O)[C@H]1O[C@H]1C(N)=O [cerulenin] | Neither; also recorded: failed to result in overexpression | 
